Results reported in PubChem BioAssay AID212 (DTP/NCI, 2004).
“And” between values parts separate entries of the source, which are not always exact repeats. Identical values can stand only once. Inconclusive results are not listed.

System: BDF1 mice, colon carcinoma 38 sc, T/C %
Assay: NCI In Vivo Anticancer Drug Screen. Data for tumor model Colon Carcinoma 38 (subcutaneous) in B6D2F1 (BDF1) mice
Conditions: endpoint: median tumor weight (est.), higher = larger tumour
How it was run: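 Ratio of survival or tumor size, compound-treated animals relative to vehicle controls, in tumor-bearing mice.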

[1] = dose: 12.5 mg/kg/injection, schedule: Q07DX002 (ip), vehicle: saline with Tween-80
[2] = dose: 25.0 mg/kg/injection, schedule: Q07DX002 (ip), vehicle: saline with Tween-80
[3] = dose: 25.0 mg/kg/injection, schedule: Q07DX002 (ip), vehicle: saline

With `O=[n+]1c2ccccc2n([O-])c2ccccc21.[Cl][Ni][Cl]` as the molecule, how does the T/C (dose: 3.12 mg/kg/injection, schedule: Q07DX002 (ip), vehicle: saline with Tween-80) read?
Its T/C is 89 % of control.

And the T/C (dose: 6.25 mg/kg/injection, schedule: Q07DX002 (ip), vehicle: saline with Tween-80)?
The T/C was 111 % of control.

And the T/C [1]?
The T/C was 89 % of control.

What about the T/C [2] of the same molecule?
Its T/C is 97 % of control.

For `O=c1n(CC2CO2)c(=O)n(CC2CO2)n1CC1CO1` (configuration not stated), which T/C (dose: 12.5 mg/kg/injection, schedule: Q07DX002 (ip), vehicle: saline) is on record?
The T/C was 25 % of control.

And the T/C [3]?
The T/C was 25 % of control.

What about the T/C (dose: 50.0 mg/kg/injection, schedule: Q07DX002 (ip), vehicle: saline) of the same molecule?
Its T/C is 18 % of control.

Which T/C (dose: 5.0 mg/kg/injection, schedule: Q07DX002 (ip), vehicle: saline) does the source give for `CCOC(=O)C(CC(C)C)NC(=O)C(N)Cc1ccc(N(CCCl)CCCl)cc1` (configuration not stated) here?
Its T/C is 43 % of control.

What about the T/C (dose: 5.0 mg/kg/injection, schedule: Q07DX002 (ip), vehicle: water) of the same molecule?
The T/C was 86 % of control.

And the T/C (dose: 10.0 mg/kg/injection, schedule: Q07DX002 (ip), vehicle: saline)?
Its T/C is 65 % of control.

What about the T/C (dose: 10.0 mg/kg/injection, schedule: Q07DX002 (ip), vehicle: water) of the same molecule?
Its T/C is 71 % of control.

And the T/C (dose: 20.0 mg/kg/injection, schedule: Q07DX002 (ip), vehicle: saline)?
Its T/C is 31 % of control.

And the T/C (dose: 20.0 mg/kg/injection, schedule: Q07DX002 (ip), vehicle: water)?
Its T/C is 36 % of control.

What does the source list for `Cc1ccc(S(=O)(=O)OCOS(=O)(=O)c2ccc(C)cc2)cc1`?
T/C (dose: 100.0 mg/kg/injection, schedule: Q07DX002 (ip), vehicle: Klucel (hydroxypropylcellulose) (HPC)): 61 % of control; T/C (dose: 200.0 mg/kg/injection, schedule: Q07DX002 (ip), vehicle: Klucel (hydroxypropylcellulose) (HPC)): 104 % of control; T/C (dose: 400.0 mg/kg/injection, schedule: Q07DX002 (ip), vehicle: Klucel (hydroxypropylcellulose) (HPC)): 80 % of control and 93 % of control; T/C (dose: 1600.0 mg/kg/injection, schedule: Q07DX002 (ip), vehicle: Klucel (hydroxypropylcellulose) (HPC)): 19 % of control and 27 % of control

Which T/C (dose: 50.0 mg/kg/injection, schedule: Q07DX002 (ip), vehicle: saline with Tween-80) does the source give for `C[C@@H]1C[C@@H]([C@H](O)CC2CC(=O)NC(=O)C2)C(=O)[C@@H](C)C1` here?
The T/C was 162 % of control.

And the T/C (dose: 100.0 mg/kg/injection, schedule: Q07DX002 (ip), vehicle: saline with Tween-80)?
Its T/C is 90 % of control.

And the T/C (dose: 200.0 mg/kg/injection, schedule: Q07DX002 (ip), vehicle: saline with Tween-80)?
Its T/C is 60 % of control.

What does the source list for `CC[n+]1ccc(Nc2ccc(NC(=O)c3ccc(C(=O)Nc4ccc(Nc5cc[n+](CC)c(N)n5)cc4)cc3)cc2)nc1N`?
T/C (dose: 6.25 mg/kg/injection, schedule: Q07DX003 (ip), vehicle: saline): 89 % of control; T/C (dose: 6.25 mg/kg/injection, schedule: Q07DX003 (ip), vehicle: suspension in saline): 70 % of control; T/C (dose: 12.5 mg/kg/injection, schedule: Q07DX003 (ip), vehicle: saline): 55 % of control; T/C (dose: 25.0 mg/kg/injection, schedule: Q07DX003 (ip), vehicle: saline): 67 % of control; T/C (dose: 25.0 mg/kg/injection, schedule: Q07DX003 (ip), vehicle: suspension in saline): 123 % of control; T/C (dose: 50.0 mg/kg/injection, schedule: Q07DX003 (ip), vehicle: saline): 67 % of control; T/C (dose: 50.0 mg/kg/injection, schedule: Q07DX003 (ip), vehicle: suspension in saline): 54 % of control; T/C (dose: 100.0 mg/kg/injection, schedule: Q07DX003 (ip), vehicle: saline): 56 % of control; T/C (dose: 100.0 mg/kg/injection, schedule: Q07DX003 (ip), vehicle: suspension in saline): 36 % of control

For `N=C(N)c1ccc(/C=C/c2ccc(C(=N)N)cc2)cc1`, which T/C (dose: 12.5 mg/kg/injection, schedule: Q07DX002 (ip), vehicle: Klucel (hydroxypropylcellulose) (HPC)) is on record?
Its T/C is 73 % of control.

What about the T/C (dose: 25.0 mg/kg/injection, schedule: Q07DX002 (ip), vehicle: Klucel (hydroxypropylcellulose) (HPC)) of the same molecule?
The T/C was 114 % of control.

And the T/C (dose: 36.0 mg/kg/injection, schedule: Q07DX002 (ip), vehicle: saline with Tween-80)?
Its T/C is 67 % of control.

Which T/C [3] does the source give for `OCC12COCN1COC2` here?
Its T/C is 82 % of control and 86 % of control.

And the T/C (dose: 400.0 mg/kg/injection, schedule: Q07DX002 (ip), vehicle: saline)?
Its T/C is 85 % of control and 97 % of control.

And the T/C (dose: 800.0 mg/kg/injection, schedule: Q07DX002 (ip), vehicle: saline)?
The T/C was 91 % of control.

What does the source list for `CN(C)CCN1C(=O)c2cccc3cc(N)cc(c23)C1=O`?
T/C (dose: 2.0 mg/kg/injection, schedule: Q07DX002 (ip), vehicle: saline with Tween-80): 111 % of control; T/C (dose: 4.0 mg/kg/injection, schedule: Q07DX002 (ip), vehicle: saline with Tween-80): 97 % of control; T/C (dose: 8.0 mg/kg/injection, schedule: Q07DX002 (ip), vehicle: saline with Tween-80): 87 % of control and 88 % of control; T/C (dose: 16.0 mg/kg/injection, schedule: Q07DX002 (ip), vehicle: saline with Tween-80): 100 % of control; T/C (dose: 64.0 mg/kg/injection, schedule: Q07DX002 (ip), vehicle: saline with Tween-80): 55 % of control and 58 % of control

With `Nc1ccc(Cl)cc1N` as the molecule, how does the T/C [1] read?
Its T/C is 75 % of control and 97 % of control.

What about the T/C [2] of the same molecule?
Its T/C is 78 % of control and 92 % of control.
